The data set is described as follows: Human HepG2 cell viability assay in 384 well format. Details: dose 125 nL, time 70.5 hour; cytotoxicity at 70.5 h: concentration not given beside the values. The class given is toxicity, cell-based. Conditions: HepG2 cells, read-out: Inhibition.

For the compound `O=C(CCc1cccs1)N1CCCC(n2ccnc2)C1` (configuration not stated), the cytotoxicity at 70.5 h is -5.36%. As for `Cc1cc(C)n(C2CN(CC(=O)NC3CCS(=O)(=O)C3)C2)n1` (configuration not stated), the figure is -9.43%; as for `COc1ccc(OCCCNCCn2cccn2)cc1`, 22.8%. `O=C(CCCNc1ncccn1)N1CCCC(n2ccnc2)C1` (configuration not stated): the cytotoxicity at 70.5 h is -3.12%. In the case of `COc1cc(C(=O)N2CCC(c3n[nH]c(C)n3)CC2)cc(OC)c1C`, the cytotoxicity at 70.5 h is -3.07%. The same measure for `CC1CCN(S(=O)(=O)NCc2ccccc2Cn2cccn2)CC1`: 14.5%. As to `COc1ccc(OC)c(C(O)CNC(=O)Nc2ccc(F)cc2F)c1` (configuration not stated), the cytotoxicity at 70.5 h is -6.18%.

Consider `Cc1nc(CN2CCN(C(=O)CCc3ccco3)CC2)cs1`, for which the cytotoxicity at 70.5 h is -5.22%. With `Cc1cnn(C2CCCN(C(=O)c3ccc(-n4ccnc4)cc3)C2)c1` (configuration not stated), the cytotoxicity at 70.5 h is -17.4%. For the compound `c1ncn(CC2CCCN(Cc3noc(C4CC4)n3)C2)n1` (configuration not stated), the cytotoxicity at 70.5 h is -12.6%. The same measure for `Cc1cc(C)n(CC2CCCN2C(=O)c2ccc(N(C)C)nn2)n1` (configuration not stated): -10.8%; for `Cc1cc(C)n(CC2CCCCN2C(=O)c2ccc(C(N)=O)cc2)n1` (configuration not stated): -12%.

For `Cc1cc(C)n(CC2CCCN2CCC(=O)Nc2cc(C)on2)n1` (configuration not stated), the cytotoxicity at 70.5 h was -7.1%. As for `O=C(c1cscn1)N1CCCC(n2cncn2)C1` (configuration not stated), the figure is -8.94%; as for `O=C(c1csnn1)N1CCCC(n2cncn2)C1` (configuration not stated), 15.3%.

As to `CN(C)c1ccc(C(=O)N2CCCC(n3cncn3)C2)nn1` (configuration not stated), the cytotoxicity at 70.5 h is -5.16%. With `Cc1cscc1C(=O)N1CCCC1CC(=O)c1cnn(C)c1` (configuration not stated), the cytotoxicity at 70.5 h was -5.58%. As for `Cc1nc(CN2CCCC(Cn3cncn3)C2)no1` (configuration not stated), the figure is 15.8%; as for `CCCc1nc(CN2CCCC2Cn2cncn2)no1` (configuration not stated), -6.08%.

For the compound `COC(=O)C(c1cc(F)ccc1F)N(C)C(=O)c1ccccn1` (configuration not stated), the cytotoxicity at 70.5 h was -9.53%. As for `COCCCNC(=O)N1CCC(CNC(=O)c2cnn(C)c2)CC1`, the cytotoxicity at 70.5 h was -8.18%. Take `CC(C)n1ccc(C(=O)N2CCCC(n3cncn3)C2)n1` (configuration not stated): the cytotoxicity at 70.5 h was -10.6%. In the case of `COc1ccc(OC)c(CNC(=O)N2CCC(n3cncn3)CC2)c1`, the cytotoxicity at 70.5 h came to 35%. `Fc1ccc(OCCCN2CCCC(Cn3cncn3)C2)cc1` (configuration not stated): the cytotoxicity at 70.5 h is -3.77%.

Take `O=C(NCCNc1cnccn1)N1CCCCCC1`: the cytotoxicity at 70.5 h was 2.18%. The same measure for `Cc1cnn(CC(=O)N2CCCN(c3ncccc3C#N)CC2)c1`: -1.08%; for `Cc1cc(C)c(CNC(=O)N2CCOC(c3ccccc3)C2)c(=O)[nH]1` (configuration not stated): -8.25%; for `Cn1cc(CCC(=O)N2CCCN(c3ncccc3C#N)CC2)cn1`: 35.5%.

As to `O=C(NCCNc1cnccn1)N1CCN(c2nccs2)CC1`, the cytotoxicity at 70.5 h was -8.94%. Turning to `Cc1ccccc1CNC(=O)N1CCC(n2cncn2)CC1`, the cytotoxicity at 70.5 h was -5.36%.

For the compound `CC(C)Sc1ncccc1C(=O)NCc1ccc(O)cc1`, the cytotoxicity at 70.5 h was -2.85%. Consider `O=C(Cn1cc(-c2ccccc2)cn1)NC(C1CC1)C1CC1`, for which the cytotoxicity at 70.5 h is -5.32%.

With `N#Cc1ccc(OCCCN2CCOC(Cn3cncn3)C2)cc1` (configuration not stated), the cytotoxicity at 70.5 h was found to be 32.1%. Take `COc1cc(Cl)ccc1CNC(=O)N1CCC(n2cncn2)CC1`: the cytotoxicity at 70.5 h was 0.114%. The same measure for `CCCc1n[nH]c(C2CN(C(=O)CCn3ccccc3=O)CCO2)n1` (configuration not stated): -2.27%. As to `CC(C)c1n[nH]c(C2CN(C(=O)Cn3ccccc3=O)CCO2)n1` (configuration not stated), the cytotoxicity at 70.5 h is -2.65%. With `CCNC(c1cccnc1)c1ccc(F)cc1F` (configuration not stated), the cytotoxicity at 70.5 h turned out to be 2.45%. Regarding `CCN(CCNC(=O)c1cccnc1OCCOC)C1CC1`, the cytotoxicity at 70.5 h was 0.553%. For the compound `CCC(C)N(C)CCNC(=O)c1ccccc1OCCOC` (configuration not stated), the cytotoxicity at 70.5 h was -6.03%. `Cc1nc(C)n(CC2CCCN(CCc3ccccc3)C2)n1` (configuration not stated): the cytotoxicity at 70.5 h is 4.16%. On to `Cc1nc(C)n(CC2CCCN(CCOc3ccccc3C#N)C2)n1` (configuration not stated), for which the cytotoxicity at 70.5 h stood at 18.8%. As for `CC(=O)NCCNC(=O)CNC1CCCN(c2ccc(C)nn2)C1` (configuration not stated), the cytotoxicity at 70.5 h stood at 17.7%. For the compound `Cc1nc(C)n(CC2CN(CCCOc3ccccc3)CCO2)n1` (configuration not stated), the cytotoxicity at 70.5 h was -2.14%.

In the case of `Cc1nc(C)n(CC2CCCN(CCOc3ccc(F)cc3)C2)n1` (configuration not stated), the cytotoxicity at 70.5 h was -3.5%.

As for `CCNC(c1cccnc1)c1ccc(F)c(C)c1` (configuration not stated), the cytotoxicity at 70.5 h worked out at 1.17%. Regarding `COc1ccnc(C(=O)N2CCCC(c3noc(C)n3)C2)c1` (configuration not stated), the cytotoxicity at 70.5 h is -12.8%. For `Fc1cccc(-c2nc(CN3CCOC(Cn4cncn4)C3)co2)c1` (configuration not stated), the cytotoxicity at 70.5 h is -15.8%. For `COc1ccc(CCN2CCc3c(nc(C4CC4)n3C)C2)cc1`, the cytotoxicity at 70.5 h is -2.39%. For `Cc1n[nH]c(C)c1NC(=O)CN1CCc2c(nc(C3CC3)n2C)C1`, the cytotoxicity at 70.5 h was 17.7%. `CC(C)OCCN1CCN(C(=O)c2cccc(CC#N)c2)CC1`: the cytotoxicity at 70.5 h was -12%. The same measure for `CCN(Cc1ccc2c(c1)OCO2)C(=O)NC(C)Cn1cccn1` (configuration not stated): -12.9%.

In the case of `COCC(O)CN(C)C(=O)NC1CCN(Cc2ccccn2)CC1` (configuration not stated), the cytotoxicity at 70.5 h is -17.1%.

Take `CC(Cn1ccnc1)NC(=O)NCCc1ccc2c(c1)OCCO2` (configuration not stated): the cytotoxicity at 70.5 h was found to be 13.3%. `CCN(Cc1ccc2c(c1)OCCO2)C(=O)NC(C)Cn1ccnc1` (configuration not stated): the cytotoxicity at 70.5 h was -12.9%.

In the case of `COCc1ccccc1CNc1cc(N2CCCC2CO)ncn1` (configuration not stated), the cytotoxicity at 70.5 h is -18.2%. For the compound `O=C1CCc2cc(-c3csc(CCN4CCCC4=O)n3)ccc2N1`, the cytotoxicity at 70.5 h was -14.6%.

As to `CC(C)c1cc(NC(=O)CN2CCc3ccccc3C2)on1`, the cytotoxicity at 70.5 h was -6.95%. Consider `CC(NC(=O)c1cccs1)C(=O)NCc1ccccc1CN1CCCC1` (configuration not stated), for which the cytotoxicity at 70.5 h was -2%.

As for `COc1ncccc1NC(=O)NCC1CCS(=O)(=O)C1` (configuration not stated), the cytotoxicity at 70.5 h is -18.6%. Consider `CCn1cnnc1CNC(=O)NC(C)c1cccs1` (configuration not stated), for which the cytotoxicity at 70.5 h was -14.5%. Turning to `CN(Cc1cnn(C)c1)C(=O)NC1CCN(Cc2ccccn2)CC1`, the cytotoxicity at 70.5 h was -11.3%. Consider `Cc1ncsc1C(=O)NC1CCN(CCC(N)=O)CC1`, for which the cytotoxicity at 70.5 h is -21.4%.

Turning to `c1ccc(-n2ccnc2)c(CNCC2CNc3ccnn3C2)c1` (configuration not stated), the cytotoxicity at 70.5 h was -20.8%. For `O=C(Cc1ccc2c(c1)OCCO2)NC1CCN(CC(F)F)CC1`, the cytotoxicity at 70.5 h is -19.5%. As for `CCn1cnnc1CNC(=O)NCC(c1cccs1)N1CCCC1` (configuration not stated), the cytotoxicity at 70.5 h is -14%. With `Cc1cccc(C)c1OCCC(=O)N1CCC(c2nncn2C)CC1`, the cytotoxicity at 70.5 h was -21.4%. With `Cc1ccc(C(=O)CCC(=O)N2CCC(c3nncn3C)CC2)cc1`, the cytotoxicity at 70.5 h is -4.47%.

For the compound `Cn1ccnc1CN1CCN(CC(O)c2ccc(F)c(F)c2)CC1` (configuration not stated), the cytotoxicity at 70.5 h worked out at 13.5%. Consider `CC(C)c1cc(NC(=O)CN2CCc3cncnc3C2)on1`, for which the cytotoxicity at 70.5 h was -11.7%. As to `CC(=O)Nc1nc(C(=O)N2CCCC2c2noc(C)n2)cs1` (configuration not stated), the cytotoxicity at 70.5 h was found to be 6.71%.

With `CCn1ccnc1CN(C)CC1CCCN1c1cccnn1` (configuration not stated), the cytotoxicity at 70.5 h worked out at 10%. For `CC(=O)N(Cc1ncc(C)o1)C1CCN(CCCc2cnn(C)c2)C1` (configuration not stated), the cytotoxicity at 70.5 h was determined as 13.3%.

In the case of `Cc1ccc(CN(C)CC(=O)NC2(C)CCS(=O)(=O)C2)cc1` (configuration not stated), the cytotoxicity at 70.5 h was -3.98%.

Consider `COc1ccc(CC(=O)NC2(C)CCS(=O)(=O)C2)cc1F` (configuration not stated), for which the cytotoxicity at 70.5 h stood at 0.396%. `CCn1ccnc1CNCC1CCCN1c1cc(NC)ncn1` (configuration not stated): the cytotoxicity at 70.5 h is -4.32%. Turning to `Cc1cc(C2CCCN(C(=O)c3c(C)nn4cccnc34)C2)n[nH]1` (configuration not stated), the cytotoxicity at 70.5 h is -3.82%. `Cc1ccoc1-c1nnc(CN2CCn3c(nnc3C3CC3)C2)o1`: the cytotoxicity at 70.5 h was 31.2%. With `Cc1noc(C)c1CN(C)CCC(=O)N1CCc2sccc2C1`, the cytotoxicity at 70.5 h is -4.03%.

Regarding `Cc1occc1CNC(=O)N(CCCO)C1CCc2ccccc21` (configuration not stated), the cytotoxicity at 70.5 h was -1.74%. Consider `CCc1ncc2c(n1)CN(CC(=O)Nc1ccc(Cl)cn1)CC2`, for which the cytotoxicity at 70.5 h came to 32.4%. Regarding `COCCN1CCN(Cc2cccc(C(=O)N(C)C)c2)CC1C` (configuration not stated), the cytotoxicity at 70.5 h was determined as 14.5%.

Turning to `CCCNC(=O)NCc1cccnc1OC`, the cytotoxicity at 70.5 h was -5.64%. With `CN(Cc1ccc2c(c1)OCCO2)C(=O)Cn1cccnc1=O`, the cytotoxicity at 70.5 h was found to be 3.46%. In the case of `CCN1CCN(c2ccc(CNC(=O)c3c(C)noc3C)cn2)CC1`, the cytotoxicity at 70.5 h was found to be 21.7%. Consider `CN(Cc1ccc2c(c1)OCCO2)C(=O)Cn1ccccc1=O`, for which the cytotoxicity at 70.5 h was -5.02%.

Consider `CCNC(=O)c1ccc(CNCc2c(C)nn(C)c2N(C)C)cc1`, for which the cytotoxicity at 70.5 h amounted to 24.8%. Consider `CC(C)CN1CCN(C(=O)NCc2cccnc2-n2cccn2)CC1`, for which the cytotoxicity at 70.5 h came to 3.85%. In the case of `CC(=O)NC1CCCN(C(=O)NCc2cccnc2-n2cccn2)C1` (configuration not stated), the cytotoxicity at 70.5 h is 3.84%.

`Cc1nn(C)c(Cl)c1CNCc1ccc(OCC(N)=O)cc1`: the cytotoxicity at 70.5 h came to 1.75%.

As to `O=C(NCCc1coc(-c2ccc(F)cc2)n1)NC1CCC(O)CC1` (configuration not stated), the cytotoxicity at 70.5 h worked out at 27.6%.

Consider `CN(C(=O)Cc1c[nH]c2ccccc12)C1CCN(c2ccccn2)CC1`, for which the cytotoxicity at 70.5 h is 9.62%. As for `Cn1cc(C(=O)N2CCCC(n3cccn3)C2)c2ccccc21` (configuration not stated), the cytotoxicity at 70.5 h is 0.858%. `Cc1nn(-c2ccccc2)cc1C(=O)N1CCCC(n2cccn2)C1` (configuration not stated): the cytotoxicity at 70.5 h is -1.21%. On to `Cc1nn(-c2ccccc2)cc1C(=O)N1CCCN2CCCC2C1` (configuration not stated), for which the cytotoxicity at 70.5 h came to 3.01%. Consider `Cc1noc(C)c1CN1CCN(Cc2nccn2C)CC1`, for which the cytotoxicity at 70.5 h was -4.67%. As for `Cc1ccc(-c2nc(CCNC(=O)NC3CCN(C)CC3)co2)cc1`, the figure is -4.33%; as for `COc1ccccc1CCN(C)C(=O)NC(C)c1nncn1C` (configuration not stated), -4.33%; as for `Cc1cc(C)n(CC2CCCCN2C(=O)c2cnn(C)c2)n1` (configuration not stated), 8.99%. With `Cc1cc(C)n(CC2CCCCN2C(=O)c2ccc3c(c2)OCO3)n1` (configuration not stated), the cytotoxicity at 70.5 h was -2.07%. As for `Cc1ccc2oc(C(=O)N3CCc4nnc(N(C)C)cc4C3)cc2n1`, the figure is -3.29%; as for `Cc1cnc(CN2CCCC(c3cc(C(F)(F)F)[nH]n3)C2)cn1` (configuration not stated), -1.33%.

As to `COCCN1CCN(Cc2cccc(OCC(N)=O)c2)CC1C` (configuration not stated), the cytotoxicity at 70.5 h stood at 10.7%.

For the origin of these results see ChEMBL document CHEMBL3507680, “University of Dundee, Gates Library screen for HepG2 cell viability”.
